# From PubChem BioAssay AID651717 (Broad Institute, 2012)
# Test system: mESC Bmi1-luciferase reporter, firefly/renilla ratio, 24 h
# Test: compounds raising Bmi1 reporter signal – mouse embryonic stem cells, luciferase, cherry-pick, esBAF inhibitor project, dose response (AID 651717);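 also: luciferase knocked into Bmi1 locus with EF-1a renilla as cell number control; rising ratio signals esBAF inhibition which derepresses Bmi1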
row,SMILES,AC40 [µM]
1,COc1cccc(NC(=O)C(=O)NCC2CCCN2S(=O)(=O)c2cccs2)c1 (stereo unspecified),1.25
2,Cc1sc2nc(-c3cccnc3)nc(Cl)c2c1-c1ccccc1,19.5
3,COc1ccc(OCc2cc(C(=O)N3C[C@H]4CC[C@H]3C4)no2)c(Cl)c1,9.24
4,COc1ccc2c(c1OC)C(=O)OC2Nc1nc(-c2cc3cc(Br)ccc3oc2=O)cs1 (stereo unspecified),1.25
5,Cn1cnc(S(=O)(=O)N2CCCCC2c2cc(C(=O)Nc3ccc(F)c(Cl)c3)no2)c1 (stereo unspecified),8.38
6,Cc1ccc(OCn2c(=O)sc3ccccc32)cc1,6.12
7,COc1cccc(N(C(=O)c2cccs2)c2nc3ccccc3s2)c1,3.76
8,Cc1ccc2oc3ccccc3c(=O)c2c1,7.05
9,COc1ccccc1/C=C/C=N/n1c(-c2ccccn2)n[nH]c1=S,9.01
10,CC(=O)Nc1ccc(-c2nnc(SCC(=O)Nc3ccc4c(c3)oc3ccccc34)n2C)cc1,6.97
11,COc1ccc(C(=O)Nc2ccc3nc(C)c(C)nc3c2)cc1,8.3
12,Cc1ccccc1NC(=O)c1ccc2c(c1)N(C)CCS2,3.39
13,Oc1cccc(/C=N/N2CCCCC2)c1O,3.47
14,Cc1ccc(C)c(OCc2nc3ccccc3[nH]2)c1,5.29
15,COc1cc(/C=C/c2ccccc2)cc(OC)c1,2.93
16,COc1ccc(C(=O)NCc2ccc(-c3nc4ccccc4s3)cc2)cc1,6.13
17,FC(F)(F)c1ccccc1Cc1c(-c2cccc(Br)c2)nc2c3ccccc3ccn12,9.57
18,Cc1ccc(CNc2cccnc2)cc1,25.7
19,CC(=O)c1ccc(OCc2cc(C(=O)N(C)Cc3cc(C)no3)no2)cc1,7.14
20,COc1cc(/C=C/c2nc3ccccc3c(=O)[nH]2)ccc1OC(F)F,1.6
21,c1ccc(-c2nc3c(ccc4ccccc43)[nH]2)nc1,0.96

row,SMILES,AC40 [µM]
1,N#CCc1ccc(OC(=O)c2cccnc2Cl)cc1,15.7
2,COC(=O)/C(=C1\Oc2ccc(C(C)(C)C)cc2S1)C(F)(F)F,1.45
3,COc1ccc(Cl)c(-c2cc(C(=O)Nc3ccccc3)[nH]n2)c1,0.423
4,CCS(=O)(=O)N1Cc2ccccc2CC1C(=O)Nc1cccc(OC)c1 (stereo unspecified),8.28
5,Cc1cccc(NC(=O)Nc2cccc(F)c2)n1,8.39
6,Cc1csc(NC(=O)Nc2ccc(Cl)cc2)n1,2.68
7,CC(=O)N1N=C(c2ccc(Br)cc2)CC1c1ccc(Br)cc1 (stereo unspecified),14.5
8,COc1ccc(C(=O)CC(=O)c2ccccc2O)cc1OC,15.1
9,COC(=O)C1CCc2c(ccc3c2CCCC3)C1=O (stereo unspecified),4.54
10,CCc1ccc2cc3c(cc2n1)C(=O)c1ccccc1-3,2.32
11,NC(=O)c1ccc(OCc2ccccc2)nc1,5.4
12,O=C(CCCc1ccccn1)c1ccc(-c2ccccc2)cc1,4.03
13,O=c1c(-c2nc3ccccc3s2)cccn1Cc1ccc(Cl)cc1,3.09
14,COc1ccccc1C=Cc1ccnc2ccccc12,7.65
15,Fc1cccc(-c2ncc(-c3ccccc3)o2)c1,0.768
16,CO[C@H]1CN(C)C(=O)c2cc(NC(=O)Nc3ccc4c(c3)OCO4)ccc2OC[C@H](C)NC[C@@H]1C,13.2
17,Cc1csc(Nc2nc(N)c(C(=O)Nc3ccccc3)o2)n1,3.69
18,CCn1c(COc2ccccc2)nc2ccccc21,22
19,Nc1nc(-c2cccc(F)c2)cs1,6.13
20,Cc1ccccc1CNC(=O)Nc1ccc(Cl)cc1,15.1
21,Clc1ccc(-c2cnnc(-c3ccccn3)n2)cc1,1.79

row,SMILES,AC40 [µM]
1,Cc1ccccc1-c1nnc(-c2cccc3ccccc23)o1,0.85
2,CC1CCN(c2oc(-c3cccc4ccccc34)nc2C#N)CC1,2.52
3,Cc1cc(Cl)ccc1OCc1nnc(-c2ccccc2C)o1,5.44
4,C=CCNc1oc(-c2ccc(OC)cc2)nc1C#N,3.54
5,CC(C)(C)Nc1nc(Cl)nc(Nc2ccccc2)n1,2.09
6,CCN(C(=O)c1cc2c(=O)n3cccc(C)c3nc2s1)C1CCCCC1,25.1
7,CSc1nnc(NC(=O)C23CC4CC(CC(C4)C2)C3)s1,6.47
8,c1ccc(-n2nnc3ccccc32)nc1,11.2
9,O=C(c1cc2ccccc2oc1=O)N(Cc1cccs1)C1CCS(=O)(=O)C1 (stereo unspecified),3.94
10,Cc1cc(C)c(N=Cc2c(O)c3ccccc3oc2=O)c(C)c1,7.95
11,Nc1nc(-c2ccc(Oc3ccccc3)cc2)cs1,7.87
12,Cc1cc(C(=O)Nc2sc(C)c(-c3ccc(F)cc3)c2C(N)=O)no1,0.612
13,CCCOc1ccc(NC(=O)C2CC(=O)N/C(=N/N=C(C)/C=C/c3ccc(N(C)C)cc3)S2)cc1 (stereo unspecified),6
14,O=C(O)c1cncc(C#CCC2CCCCC2)c1,15.6
15,O=C(NNC(=O)c1ccccc1OCc1ccccc1)c1ccccc1F,11.5
16,CC(=O)N(/N=C1\Sc2ccccc2C1=O)c1ccccc1,< 0.26
17,CCn1ccnc1CN(C)C(=O)c1cc(COc2ccccc2SC)on1,8.01
18,Nc1cc2c(cc1Cl)-c1ccccc1C2,6.53
19,COc1ccc(C(=O)CNc2cccc(F)c2)cc1,16.4
